Converted amounts (≈) assume the structure as drawn. Like-named read-outs stand apart in the source and are kept apart here.

The text below walks through data of US10738068B2, “Organic/inorganic hybrid nanoparticulates made from iron carboxylates” (CENTRE NATIONAL DE LA RECHERCHE SCIENTIFIQUE—CNRS, priority 2007, dated 2020).

For data set [1] the following is noted: cited from earlier work.
Data set [2] in a line: Solubility of busulfan in various solvents. It counts as physicochemical. The source says: The solvents chosen for the impregnation are those in which busulfan has appreciable solubility (acetone, acetonitrile, chloroform, dichloromethane, dimethyl carbonate) (Table 18).

Consider `NC(N)=O` [Urea], for which the Solubility in water in data set [1] (20° C.) is 1080 mg/mL (≈ 18000 mM).
Regarding `CC(=O)O[C@H]1C(=O)[C@@]2(C)[C@H]([C@H](OC(=O)c3ccccc3)[C@]3(O)C[C@H](OC(=O)[C@H](O)[C@@H](NC(=O)c4ccccc4)c4ccccc4)C(C)=C1C3(C)C)[C@]1(OC(C)=O)CO[C@@H]1C[C@@H]2O` [Paclitaxel], in data set [1] (ethanol, DMSO), the “Solubility in ethanol and in DMSO” value is reported as “about 50 g/L”.
Turning to `CS(=O)(=O)OCCCCOS(C)(=O)=O` [busulfan, 1,4-butanediol dimethylsulfonate], the Busulfan solubility in data set [2] (Chloroform) was 8 mg/mL; in data set [2] (Ethanol), <<<4 mg/ml; in data set [2] (Ether) it was <<<4 mg/ml; in data set [2] (Hexane), <<<4 mg/ml; in data set [2] (Methanol), <<<4 mg/ml; in data set [2] (Tetrahydrofuran) it was roughly 5 mg/mL. Further, the Busulfan solubility in data set [2] (Toluene) is roughly 4 mg/mL.
As to `Nc1ccn([C@@H]2O[C@H](CO)[C@@H](O)C2(F)F)c(=O)n1` [Gemcitabine], the “Solubility in water” value in data set [1] is given as “water soluble”.
